From US20240417428A1, “POLYPEPTIDE FOR INHIBITING TRPM8 AND USE THEREOF” (ZHEJIANG UNIVERSITY, priority 2021, published 2024) come the findings set out here.

Entries after “also recorded” stand apart in the source; their conditions may differ. Where a SMILES comes first, the peptide text is derived from it.

Data set [1] can be described thus: Mice body temperature measurement. The settings on record: 30 μg/g body weight i.v., up to 24 h. The data set is classed as in vivo. The method, then: A digital thermometer (FT3400) was used for body temperature measurement of mice. Adult CD1 male mice were placed into an environmental room maintained at a constant temperature of 22±1° C. Mice were injected with DeC-1.2 (30 mg/kg body weight) via the tail vein to assess the effect of DeC-1.2 on body temperature. Body temperature was measured before treatment (baseline, BL) and at 5 min, 15 min, 0.5, 1, 2, 6 and 24 hours following DeC-1.2 (30 mg/kg, i.v.) administration. The test probe of the thermometer was inserted into the anus of the mouse approximately 2 cm, and the body temperature was recorded after the temperature display value was stable.

In a further data set the target is T1, TRPV1 (Homo sapiens, UniProt Q8NER1).
T1 construct: expressed in transfected cells; host or cells: HEK293T
T1 sequence (Q8NER1 whole entry, species assumed): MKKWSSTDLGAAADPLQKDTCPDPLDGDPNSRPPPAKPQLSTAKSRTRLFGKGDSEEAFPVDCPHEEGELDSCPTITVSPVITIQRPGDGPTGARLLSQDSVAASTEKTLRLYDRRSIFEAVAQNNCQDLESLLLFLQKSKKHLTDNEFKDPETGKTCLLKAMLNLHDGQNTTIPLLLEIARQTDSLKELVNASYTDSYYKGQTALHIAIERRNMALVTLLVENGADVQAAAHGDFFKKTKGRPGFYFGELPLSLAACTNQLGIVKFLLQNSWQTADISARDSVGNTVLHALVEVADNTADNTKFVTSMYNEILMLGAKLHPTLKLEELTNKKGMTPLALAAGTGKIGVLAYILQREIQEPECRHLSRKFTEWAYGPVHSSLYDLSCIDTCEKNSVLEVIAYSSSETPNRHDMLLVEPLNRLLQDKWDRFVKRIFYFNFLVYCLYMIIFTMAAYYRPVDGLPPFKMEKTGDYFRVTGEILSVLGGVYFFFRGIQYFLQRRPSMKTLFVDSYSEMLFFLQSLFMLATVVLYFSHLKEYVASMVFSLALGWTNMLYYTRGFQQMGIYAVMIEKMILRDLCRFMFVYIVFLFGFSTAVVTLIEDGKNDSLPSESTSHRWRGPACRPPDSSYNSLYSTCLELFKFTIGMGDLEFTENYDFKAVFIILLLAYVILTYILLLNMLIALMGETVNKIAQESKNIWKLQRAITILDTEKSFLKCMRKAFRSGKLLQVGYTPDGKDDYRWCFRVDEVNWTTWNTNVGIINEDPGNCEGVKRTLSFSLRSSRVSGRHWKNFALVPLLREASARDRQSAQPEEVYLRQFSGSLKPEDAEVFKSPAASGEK
Briefly: Electrophysiological recording, ligand activation of TRPV1. The data set is classed as cell-based. The method, then:
(§1) HEK293T cells were cultured in Dulbecco's modified Eagle culture medium under a 37° C., 5% CO2 environment, 10% fetal bovine serum, penicillin (100 U/mL), and streptomycin ([…]) was needed to add into the culture medium. Transient transfection was conducted by using Lipo 2000 (Invitrogen) transfection kit and following the instruction manual.
(§2) Electrophysiological experiment recordings were performed on the cells within 24˜48 h of transient transfections. Specifically, single channel electrophysiological recordings were performed within 8 h after transfection.
(§3) Measurement of the cell currents was respectively performed in the whole-cell recording mode, inside-out recording mode or outside-out recording mode with a HEKA EPC10 amplifier. In the whole cell electrophysiological recordings, glass microelectrodes made of borosilicate material were fire-polished to a original electrode resistance of about 3-6 MΩ. Serial resistance was compensated by 60%. The whole cell electrophysiological recordings were performed at ±80 mV. For single channel electrophysiological recordings, glass microelectrodes were fire-polished to a higher resistance of 6-8 MΩ2. Current signal was sampled at 10 kHz and filtered at 2.9 kHz. Membrane potential of the cell membrane would be clamped at +80 mV. All electrophysiological recordings were performed at room temperature (22° C.) (the maximum variation is 1° C.). […]

The target in data set [2] is T2, TRPM8 (Mus musculus, UniProt Q8R4D5). The data set is described as follows: Whole-cell electrophysiological recording, menthol-activated TRPM8 in transfected HEK293T cells. More on the design: expressed in transfected cells; host or cells: HEK293T. The settings on record: whole-cell recording, menthol activation of TRPM8; read-out: half-inhibitory concentration (IC50) inhibiting TRPM8. The data set is classed as cell-based. The method, then: as §1, §2, §3
T2 sequence (Q8R4D5 whole entry): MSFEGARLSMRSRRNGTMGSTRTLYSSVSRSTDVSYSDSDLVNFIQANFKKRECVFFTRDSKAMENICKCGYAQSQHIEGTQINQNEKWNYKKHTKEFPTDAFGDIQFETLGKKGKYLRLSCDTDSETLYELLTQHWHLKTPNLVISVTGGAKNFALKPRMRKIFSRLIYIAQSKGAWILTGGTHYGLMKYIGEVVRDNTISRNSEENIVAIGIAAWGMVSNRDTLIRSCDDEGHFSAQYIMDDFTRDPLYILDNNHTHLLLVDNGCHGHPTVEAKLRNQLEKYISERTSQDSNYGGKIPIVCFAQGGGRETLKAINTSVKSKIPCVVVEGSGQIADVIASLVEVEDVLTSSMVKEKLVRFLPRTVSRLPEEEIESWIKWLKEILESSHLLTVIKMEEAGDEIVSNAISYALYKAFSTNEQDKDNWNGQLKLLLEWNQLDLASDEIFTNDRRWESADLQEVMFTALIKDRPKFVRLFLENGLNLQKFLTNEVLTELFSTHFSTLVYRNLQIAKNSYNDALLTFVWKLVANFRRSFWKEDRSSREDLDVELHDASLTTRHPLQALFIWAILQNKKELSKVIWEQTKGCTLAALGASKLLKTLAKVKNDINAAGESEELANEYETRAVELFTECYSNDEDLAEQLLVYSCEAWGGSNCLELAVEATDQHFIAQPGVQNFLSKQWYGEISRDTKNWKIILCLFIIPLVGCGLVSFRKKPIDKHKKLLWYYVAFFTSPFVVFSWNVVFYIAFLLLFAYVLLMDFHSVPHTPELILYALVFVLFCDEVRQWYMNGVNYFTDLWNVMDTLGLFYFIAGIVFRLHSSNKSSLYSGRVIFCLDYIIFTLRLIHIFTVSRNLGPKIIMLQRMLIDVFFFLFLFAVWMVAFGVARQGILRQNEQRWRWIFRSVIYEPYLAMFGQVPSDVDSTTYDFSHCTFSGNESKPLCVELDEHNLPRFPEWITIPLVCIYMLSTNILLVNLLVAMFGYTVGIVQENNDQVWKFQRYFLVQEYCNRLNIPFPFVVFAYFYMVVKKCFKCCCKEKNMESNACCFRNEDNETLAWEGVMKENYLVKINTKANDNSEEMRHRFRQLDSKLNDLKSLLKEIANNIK

Data set [3] has as its target T2, TRPM8. Briefly: Inside-out single-channel recording of cold-activated TRPM8 (16° C.) at +80 mV. The class given is cell-based. Particulars: DeC-1.2 100 μM at 16° C. The arrangement: expressed in transfected cells; host or cells: HEK293T. The method, then: as §1, §2
as §3, with “mV.” for “mV. All electrophysiological recordings were performed at room temperature (22° C.) (the maximum variation is 1° C.).”
There were different bath and pipette solutions prepared for different ion channels current measurement. […]

The target in a further data set is T3, TRPM4 (Mus musculus, UniProt Q7TN37, K1045A).
T3 construct: expressed in transfected cells; host or cells: HEK293T
The data set is described as follows: Electrophysiological recording, ligand activation of TRPM4 (TRPM4-K1045A). The class given is cell-based. The method, then:
as §1, §2, §3

The next data set deals with T4, Nav1.5 (Homo sapiens, UniProt Q14524).
T4 construct: expressed in transfected cells; host or cells: HEK293T
T4 sequence (Q14524 whole entry): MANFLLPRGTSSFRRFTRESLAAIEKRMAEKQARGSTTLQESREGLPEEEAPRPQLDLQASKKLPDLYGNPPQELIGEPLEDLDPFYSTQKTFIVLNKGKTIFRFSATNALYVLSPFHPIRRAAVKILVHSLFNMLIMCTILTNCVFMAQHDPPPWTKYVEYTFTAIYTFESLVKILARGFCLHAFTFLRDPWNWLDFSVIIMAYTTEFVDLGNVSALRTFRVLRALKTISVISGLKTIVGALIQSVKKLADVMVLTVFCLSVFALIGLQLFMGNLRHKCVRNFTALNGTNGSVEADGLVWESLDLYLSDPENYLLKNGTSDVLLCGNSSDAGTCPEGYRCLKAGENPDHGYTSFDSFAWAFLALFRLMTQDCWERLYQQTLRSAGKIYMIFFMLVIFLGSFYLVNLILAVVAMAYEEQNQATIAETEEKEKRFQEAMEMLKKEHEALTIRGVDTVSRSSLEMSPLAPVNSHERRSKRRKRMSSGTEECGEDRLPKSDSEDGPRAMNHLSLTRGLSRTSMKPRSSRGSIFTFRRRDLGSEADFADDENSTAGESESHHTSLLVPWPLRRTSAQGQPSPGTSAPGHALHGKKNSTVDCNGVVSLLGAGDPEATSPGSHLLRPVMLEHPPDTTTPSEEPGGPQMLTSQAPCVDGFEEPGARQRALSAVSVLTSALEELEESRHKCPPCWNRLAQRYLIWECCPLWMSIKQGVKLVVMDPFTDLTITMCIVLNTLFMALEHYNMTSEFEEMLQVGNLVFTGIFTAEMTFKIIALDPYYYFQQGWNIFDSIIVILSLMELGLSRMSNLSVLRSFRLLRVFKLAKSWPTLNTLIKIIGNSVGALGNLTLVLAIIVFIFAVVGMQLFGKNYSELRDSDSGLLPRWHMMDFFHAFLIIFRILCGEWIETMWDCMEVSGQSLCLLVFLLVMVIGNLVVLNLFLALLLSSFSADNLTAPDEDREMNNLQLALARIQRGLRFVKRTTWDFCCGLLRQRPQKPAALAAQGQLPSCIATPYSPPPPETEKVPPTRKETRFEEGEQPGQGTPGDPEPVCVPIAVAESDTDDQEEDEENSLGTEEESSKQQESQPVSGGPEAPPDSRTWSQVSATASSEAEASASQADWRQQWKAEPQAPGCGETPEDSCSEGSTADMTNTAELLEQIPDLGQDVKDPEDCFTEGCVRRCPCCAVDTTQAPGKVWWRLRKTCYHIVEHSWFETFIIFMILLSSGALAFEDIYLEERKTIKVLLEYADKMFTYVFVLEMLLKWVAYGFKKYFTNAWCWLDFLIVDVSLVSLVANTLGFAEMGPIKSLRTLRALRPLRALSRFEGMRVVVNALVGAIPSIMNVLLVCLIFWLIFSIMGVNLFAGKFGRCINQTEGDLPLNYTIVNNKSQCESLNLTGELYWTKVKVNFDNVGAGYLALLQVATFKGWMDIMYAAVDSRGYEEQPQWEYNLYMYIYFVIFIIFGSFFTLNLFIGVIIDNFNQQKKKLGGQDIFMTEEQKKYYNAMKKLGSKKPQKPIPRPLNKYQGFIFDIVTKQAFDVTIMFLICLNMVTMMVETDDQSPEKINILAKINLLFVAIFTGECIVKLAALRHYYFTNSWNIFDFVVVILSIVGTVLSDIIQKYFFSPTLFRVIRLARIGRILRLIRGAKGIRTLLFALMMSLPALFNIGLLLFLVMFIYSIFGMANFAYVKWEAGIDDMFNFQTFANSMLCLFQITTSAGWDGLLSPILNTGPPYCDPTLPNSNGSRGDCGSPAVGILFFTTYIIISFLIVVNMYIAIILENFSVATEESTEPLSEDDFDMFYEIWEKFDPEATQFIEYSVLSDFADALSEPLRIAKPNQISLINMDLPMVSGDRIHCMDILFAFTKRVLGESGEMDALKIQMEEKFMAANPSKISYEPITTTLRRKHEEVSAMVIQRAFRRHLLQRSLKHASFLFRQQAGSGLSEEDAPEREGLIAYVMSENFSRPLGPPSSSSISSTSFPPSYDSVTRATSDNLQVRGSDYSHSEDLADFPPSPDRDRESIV
The data set is described as follows: Electrophysiological recording of Nav1.5 sodium current. The data set is classed as cell-based. The method, then:
as §1, §2, §3

Data set [4] deals with T2, TRPM8. Briefly: Inside-out single-channel recording of menthol-activated TRPM8 at +80 mV. The data set is classed as cell-based. More on the design: expressed in transfected cells; host or cells: HEK293T. The method, then: as §1, §2
Measurement of the cell currents was respectively performed in the whole-cell recording mode, inside-out recording mode or outside-out recording mode with a HEKA EPC10 amplifier. In the whole cell electrophysiological recordings, glass microelectrodes made of borosilicate material were fire-polished to a original electrode resistance of about 3-6 MΩ. Serial resistance was compensated by 60%. The whole cell electrophysiological recordings were performed at ±80 mV. For single channel electrophysiological recordings, glass microelectrodes were fire-polished to a higher resistance of 6-8 MΩ2. Current signal was sampled at 10 kHz and filtered at 2.9 kHz. Membrane potential of the cell membrane would be clamped at +80 mV. All electrophysiological recordings were performed at room temperature (22° C.) (the maximum variation is 1° C.).
There were different bath and pipette solutions prepared for different ion channels current measurement. For ion channels such as TRPM8, TRPV1, TRPV2, TRPV3 and TRPA1, the formula of the bath and pipette solutions was: 130 mM NaCl, 0.2 mM EDTA and 3 mM HEPES, pH=7.2. For the current measurement of TRPM4 ion channel, the formula of the bath solution was: 130 mM NaCl and 3 mM HEPES, pH=7.2, and the formula of the pipette solution was: 500 μM CaCl2), 130 mM NaCl and 3 mM HEPES, pH=7.2. For the current measurement of TRPM2 ion channel, the formula of the bath solution was: 147 mM NaCl, 2 mM KCl, 1 mM MgCl2, 10 mM HEPES, 2 mM CaCl2) 13 mM Glucose, pH=7.4, and the formula of the pipette solution was: 147 mM NaCl, 1 mM MgCl2, 10 mM HEPES, pH=7.4. For the current measurement of Nav1.5, Nav1.7 ion channels, the formula of the bath solution was: 140 mM NaCl, 3 mM KCl, 1 mM MgCl2, 1 mM CaCl2), 10 mM HEPES, pH=7.2 and the formula of the pipette solution was: 140 mM CsF, 1 mM EGTA, 10 mM NaCl, 10 mM MgCl2, 3 mM KCl, pH=7.2. To evoke sodium channel current, the membrane potential was increased from −80 mV to +10 mV.
A rapid solution changer with a gravity-driven perfusion system (RSC-200, BioLogic) was used to rapidly perfuse specific solutions into the cells to be tested. Each solution was delivered through a separate tube so that there is no mixing of solutions. The glass microelectrode with a membrane patch was placed directly below the outlet of the perfusion tube during the electrophysiology recordings.

Take `C[C@@H]1NC(=O)[C@H](CCCNC(=N)N)NC(=O)[C@H](CC(=O)O)NC(=O)[C@H](CCCNC(=N)N)NC(=O)[C@H](CCCNC(=N)N)NC(=O)[C@@H](N)CSSC[C@@H](C(=O)O)NC(=O)[C@H](CCCNC(=N)N)NC(=O)[C@H](CCC(N)=O)NC(=O)[C@H](CCCNC(=N)N)NC(=O)[C@H](Cc2ccc(O)cc2)NC(=O)[C@H](Cc2c[nH]cn2)NC(=O)[C@H](CCCNC(=N)N)NC1=O` [DeC-1.2, CRRDRARHYRQRC] (HELM PEPTIDE1{C.R.R.D.R.A.R.H.Y.R.Q.R.C}$PEPTIDE1,PEPTIDE1,1:R3-13:R3$$$V2.0; N-terminus and C-terminus assumed): the “effect on body temperature” value in data set [1] was “did not significantly alter body temperature”. The IC50 on TRPV1 was greater than 100 µM; on TRPM8 [2], 0.0045 ± 0.003 µM; against TRPM4 it was greater than 10 µM; against Nav1.5, greater than 100 µM. For the same molecule, on TRPV1 (DeC-1.2 5 μM), the “inhibition of ligand activation of TRPV1” value was “failed to inhibit”. Further, on TRPM8 [3], the “effect on open probability of cold-activated TRPM8” value is recorded as “does not change significantly; also recorded: did not decrease the open probability”. At TRPM8 [3], the “effect on single-channel conductance of cold-activated TRPM8” value is recorded as “does not change significantly; also recorded: did not further reduce the single-channel conductance”. The “inhibition of Nav channels” value against Nav1.5 (Nav1.5) is “none of the TRP channels and Nav channels were inhibited”. On TRPM8 [4] (DeC-1.2 100 μM with saturated menthol (1 mM), n=5), the “open probability of TRPM8” value is reported as 18.83±1.92%. Also, the “change of single-channel conductance of menthol-activated TRPM8” value at TRPM8 [4] (DeC-1.2 100 μM, menthol 1 mM) is on record as “decreases significantly”. Moreover, at TRPM8 [4] (DeC-1.2 100 μM, menthol 1 mM, P<0.0001), the “change of open probability of menthol-activated TRPM8” value is listed as “decreases significantly”.
